Assay results as given in patent US20100305101A1, “Leptin genotype and ß-adrenergic agonists” (priority 2009, published 2010).
Counter-ions that a name gives are not always drawn.

Tests used:
[1] = Feedlot trial of leptin Arg25Cys genotype x Zilpaterol Hydrochloride administration (Cactus Research); format: in vivo, cattle; conditions: for daily dry matter intake (DDMI) during ZH treatment: last 24 days on feed; for % USDA stamped quality grade Choice+Prime, effect of ZH administration: vs no ZH
Protocol: In a trial completed at a private research facility in Texas, USA (Cactus Research, Amarillo Tex.) leptin genotype was assessed for potential interaction with Zilpaterol Hydrochloride (ZH). The trial consisted of 4,279 animals and occurred from summer of 2008 and carried through to spring of 2009. The trial was conducted as a randomized complete block design with approximately 90 animals being placed into pens based on leptin genotype and randomly assigned to drug treatment with pen being the experimental unit. Treatment structure was a 3×2 factorial including three letting genotypes (CC, CT and TT) and two drug treatments (zero control and drug treatment). Pens were blocked by time, specifically arrival date of the animal to the feedlot. Each block was slaughtered on the same day, and the complete process replicated eight times resulting in eight blocks. Below is a schematic summary of the trial design.
Upon arrival into the feedlot animals were individually weighed and back fat was measured using ultrasound. These measured were also taken 65, days on feed, and then one week prior to ZH treatment and 2-3 days prior to slaughter. All cattle were slaughtered and USDA carcass data were measured. Growth data were fitted to a non-linear growth model.
Backfat was measure by ultrasound at: • 1) Arrival • 2) 65 days on feed • 3) 1 week prior to zilpaterol initiation • 4) 2-3 days prior to slaughter 8 total blocks, 6 treatment pens per block, and 4,179 head total (avg initial wt=875 lbs) Within blocks, all treatments were killed on the same day (avg days on feed=129

[2] = RH 300 mg/steer/day, ZH 6 mg/steer/day; cited from earlier work
B-AR's = conditions: swine; within the first 7 days of treatment with RH; cited from earlier work

## CC(C)N[C@@H]1CCn2c(=O)[nH]c3cccc(c32)[C@H]1O (racemic) [ZH, Zilpaterol Hydrochloride]
[1]; CC and CT genotype animals
  hot carcass weight (HCW) gain response to ZH administration: largest response
[1]; CC genotype animals
  % empty body fat (% EBF) change when fed ZH: smallest reduction
  marbling score, effect of ZH administration: slight reduction
  daily dry matter intake (DDMI) during ZH treatment: no change
  % USDA stamped quality grade Choice+Prime, effect of ZH administration: unaffected
[1]; CT and TT genotype animals
  daily dry matter intake (DDMI) during ZH treatment: significant reduction
[1]; TT and CT genotype animals
  marbling score, effect of ZH administration: much greater reduction
  rib eye area (REA) gain with ZH administration: 1.4 square inches
  % USDA stamped quality grade Choice+Prime, effect of ZH administration: significant reductions
[1]; TT genotype animals
  % empty body fat (% EBF) change when fed ZH: largest reduction
  hot carcass weight (HCW) gain response to ZH administration: lowest response
[2]
  LM (Longissimus Muscle) area: larger
  sheer force and toughness of the muscle tissue: increased

## CC(CCc1ccc(O)cc1)NCC(O)c1ccc(O)cc1 (stereo not shown) [RH, Ractopamine Hydrochloride]
[2]
  LM (Longissimus Muscle) area: no effect
  sheer force and toughness of the muscle tissue: increased
B-AR's
  B-AR down-regulation in adipose tissue: ~50%
